A value given as a limit tells only on which side of the number the result lay.

This assay addresses E3 ubiquitin-protein ligase Mdm2 (Homo sapiens, UniProt Q00987).

Sequence of E3 ubiquitin-protein ligase Mdm2 (Q00987 whole entry): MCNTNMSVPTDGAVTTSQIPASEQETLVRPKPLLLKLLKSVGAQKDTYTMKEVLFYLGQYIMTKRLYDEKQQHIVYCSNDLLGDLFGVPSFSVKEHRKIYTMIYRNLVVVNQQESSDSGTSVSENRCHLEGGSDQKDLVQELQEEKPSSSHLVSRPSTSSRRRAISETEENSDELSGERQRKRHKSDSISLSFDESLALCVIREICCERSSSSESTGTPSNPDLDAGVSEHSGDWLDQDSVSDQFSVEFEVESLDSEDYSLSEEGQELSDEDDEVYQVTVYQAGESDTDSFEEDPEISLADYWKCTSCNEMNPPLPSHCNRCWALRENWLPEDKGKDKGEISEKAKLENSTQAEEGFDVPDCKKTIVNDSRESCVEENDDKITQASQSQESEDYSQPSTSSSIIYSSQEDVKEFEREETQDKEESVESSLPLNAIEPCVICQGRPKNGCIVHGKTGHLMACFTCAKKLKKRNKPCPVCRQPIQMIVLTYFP
Description: Inhibition of GST-tagged HDM2 (unknown origin) assessed as p53 ubiquitination by Western blot analysis

Consider `O=c1nc2n(-c3ccc(Cl)cc3)c3c([N+](=O)[O-])cccc3cc-2c(=O)[nH]1`, for which the IC50 (usually the midpoint of a concentration-inhibition curve) is above 50 µM.

`O=c1nc2n(-c3ccc(F)cc3)c3c(C(F)(F)F)cccc3cc-2c(=O)[nH]1`: the IC50 came to 13.1 µM. Take `O=c1nc2n(-c3cccc(Cl)c3)c3c(Cl)cccc3cc-2c(=O)[nH]1`: the 50% inhibitory concentration (IC50) is above 100 µM. Compound `O=c1nc2n(-c3ccccc3)c3c(Cl)cccc3cc-2c(=O)[nH]1` gave an IC50 above 100 µM.

Compound `O=c1nc2n(-c3cccc(F)c3)c3c(Cl)cccc3cc-2c(=O)[nH]1` yielded an IC50 above 100 µM.

Compound `O=c1nc2n(-c3ccc(Cl)cc3)c3cc(C(F)(F)F)ccc3cc-2c(=O)[nH]1` had an IC50 above 100 µM. On to `O=c1nc2n(-c3ccccc3F)c3cc(C(F)(F)F)ccc3cc-2c(=O)[nH]1`, for which the IC50 was above 100 µM. The compound `O=c1nc2n(-c3ccc(Cl)cc3)c3cccc(Cl)c3cc-2c(=O)[nH]1` displayed an IC50 above 100 µM. `O=c1nc2n(-c3ccc(Cl)cc3)c3ccc(C(F)(F)F)cc3cc-2c(=O)[nH]1` had an IC50 above 100 µM. Turning to `O=c1nc2n(-c3ccc(Cl)cc3)c3ccc([N+](=O)[O-])cc3cc-2c(=O)[nH]1`, the IC50 is above 75 µM. Consider `O=c1nc2n(-c3ccccc3F)c3ccc(Cl)cc3cc-2c(=O)[nH]1`, for which the IC50 is above 100 µM. Take `O=c1nc2n(-c3ccc(Cl)cc3)c3cccc(C(F)(F)F)c3cc-2c(=O)[nH]1`: the 50% inhibitory concentration (IC50) was above 100 µM.

`O=c1nc2n(-c3ccccc3F)c3c([N+](=O)[O-])cccc3cc-2c(=O)[nH]1` had an IC50 above 100 µM. With `O=c1nc2n(Cc3ccccc3)c3c(C(F)(F)F)cccc3cc-2c(=O)[nH]1`, the IC50 is above 100 µM. With `O=c1nc2n(-c3ccccc3)c3c(Br)cccc3cc-2c(=O)[nH]1`, the IC50 is above 100 µM. `O=c1nc2n(-c3ccccc3F)c3c(C(F)(F)F)cccc3cc-2c(=O)[nH]1` showed an IC50 of 19.6 µM.

As to `Cc1ccc2cc3c(=O)[nH]c(=O)nc-3n(-c3ccc(Cl)cc3)c2c1`, the IC50 was above 100 µM.
